In general, IC50 refers to the midpoint of a concentration-inhibition curve. One may read the EC50 as the midpoint of the concentration-response curve.

This is an account of results in paper PMC12383012 (Antioxidants, 2025).

Entries after “also recorded” stand apart in the source; their conditions may differ. Like-named read-outs stand apart in the source and are kept apart here.

The target in data set [1] is T1, electric eel acetylcholinesterase (eeAChE) (Electrophorus electricus, UniProt O42275).
T1 construct: purchased
T1 sequence (O42275 24-633): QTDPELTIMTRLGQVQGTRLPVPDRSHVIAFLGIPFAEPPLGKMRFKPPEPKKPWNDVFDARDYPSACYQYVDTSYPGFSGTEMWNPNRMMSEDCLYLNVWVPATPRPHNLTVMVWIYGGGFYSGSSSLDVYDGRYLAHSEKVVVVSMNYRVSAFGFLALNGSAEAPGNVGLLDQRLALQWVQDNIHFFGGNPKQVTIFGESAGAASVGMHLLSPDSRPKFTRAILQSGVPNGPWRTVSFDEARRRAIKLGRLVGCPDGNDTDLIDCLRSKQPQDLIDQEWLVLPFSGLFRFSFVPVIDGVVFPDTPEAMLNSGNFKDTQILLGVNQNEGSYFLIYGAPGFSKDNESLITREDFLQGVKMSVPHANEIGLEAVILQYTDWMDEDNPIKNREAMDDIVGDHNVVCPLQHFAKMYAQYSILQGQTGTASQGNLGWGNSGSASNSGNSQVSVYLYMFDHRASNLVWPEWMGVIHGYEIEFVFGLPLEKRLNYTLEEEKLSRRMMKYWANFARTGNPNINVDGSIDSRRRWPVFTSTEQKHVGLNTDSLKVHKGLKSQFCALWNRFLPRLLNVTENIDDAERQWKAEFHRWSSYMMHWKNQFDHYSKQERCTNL
As to the kind of experiment: Acetylcholinesterase inhibition (adapted Ellman's method). The following applies: read-out: AChE Inhib IC50. It counts as biochemical. The method, then:
(§1) The enzyme inhibition of electric eel acetylcholinesterase (eeAChE) and equine butyrylcholinesterase (eqBChE) was performed according to an adaptation of Elmman’s method. Stock solutions of 1 mg of each compound in 1 mL MeOH were prepared, and adequate dilutions were further made for each ligand. A control measurement (5 replicates without a ligand) and a calibration curve of 5 points with 3 replicates per point were conducted. Each solution included fixed volumes of 4-(2-hydroxyethyl)-1-piperazine-ethanesulfonic acid (HEPES) and cholinesterase (eeAChE or eqBChE), with different volumes of ligand solution. A blank solution containing HEPES and MeOH was also prepared at the same time. After 15 min of reaction, […] (AChI) or butyrylcholine iodide (BChI) and 5,5’-dithiobis-(2-nitrobenzoic acid) (DTNB) were added to both solutions contained in spectrophotometer cuvettes, and the absorbance at 405 nm was recorded for 5 min (time interval = 1 s, slid width = 1 nm). The slope for each calibration point (absorbance versus reaction time) was determined, and the percent inhibition was calculated by using the equation: %Inhibition=100−(vi/v0×100). where vi is the reaction rate (slope) for each point of the calibration with the ligand, and v0 is the initial reaction rate (slope) for the control point (without ligand). Finally, the five-point linear regression (10–50 µL of ligand solution) corresponding to the percentage of enzyme inhibition vs. the compound concentration allowed for the determination of the half maximal inhibitory concentration (IC50, µM) (compound concentration for which enzyme activity is reduced to half). Experiments were performed twice for each ligand. Statistical analysis was performed by a one-way analysis of variance (ANOVA) with a significance threshold set at p < 0.05.

Data set [2] in a line: Free-radical-scavenging assay (DPPH method). The settings on record: for % AA (radical-scavenging activity): compound concentration 100 μM. The procedure: The percentage of radical-scavenging activity (%AA, antioxidant capacity) of the RIV hybrids was first determined by the 2,2-diphenyl-1-picrylhydrazyl (DPPH) method using a compound concentration of 100 μM. […] Each calibration point was kept 30 min in darkness, and afterwards, the absorbance was measured at 517 nm. The corresponding antioxidant activity (%AA) was calculated using the equation %AA=ADPPH−Aligand/ADPPH×100. From the plot of %AA versus ligand concentration, EC50 was determined. Three independent experiments were performed, and a statistical analysis was conducted by a one-way analysis of variance (ANOVA) with the significance threshold set at p < 0.05.
The RIV hybrids were screened for their radical-scavenging activity by using the DPPH method. These assays were conducted in two stages: first, preliminary analyses were performed for all the compounds to evaluate the percentage of radical-scavenging activity by using a compound concentration of 100 μM. Afterwards, the compounds showing more than 50% antioxidant activity (AA), under those conditions, were further assessed to evaluate the respective EC50 values.
For orientation: Loss of DPPH colour is used to gauge radical scavenging.

Data set [3] deals with SH-SY5Y human neuroblastoma cell line. As to the kind of experiment: Cell viability dose-response screening (MTT). Type of data set: cell-based. The following applies: 24 h. The method, then: (§2) Cell viability was assessed using the colorimetric MTT (3-(4,5-dimethylthiazol-2-yl)-2,5-diphenyltetrazolium bromide) assay, as previously described.
(§3) The compounds’ solutions (4AY1-6, 4BY1-3, and 4CY1) were prepared in DMSO to create stock solutions at a concentration of 25 mM, which were then stored at −20 °C. A concentration range from 0.5 µM to 20 µM was screened to identify the highest non-toxic dose. The SH-SY5Y human neuroblastoma cell line (ATCC-CRL-2266) was grown in Dulbecco’s modified Eagle’s medium (DMEM) (Thermo Fisher Scientific-Gibco, Waltham, MA, USA) supplemented with 10% heat-inactivated fetal calf serum, 50 U/mL penicillin, and 50 µg/mL streptomycin at 37 °C in a 5% CO2 atmosphere. The cells were seeded at a density of 0.1 × 10^6 cells/mL (when 48-well plates were used) or 0.15 × 10^6 cells/mL (when 24-well plates were used) one day before the experiment commenced. Following the seeding, the cells were treated with the selected concentrations of compounds for 24 h. After treatment, the cells were washed with PBS and incubated with 150 µL (in 48-well plates) or 200 µL (in 24-well plates) of MTT (0.5 mg/mL) for 2 h at 37 °C with 5% CO2. During this incubation, cellular dehydrogenases converted MTT into formazan crystals, which were subsequently dissolved in 150 µL (in 48-well plates) or 200 µL (in 24-well plates) of 0.04 M HCl/isopropanol, and the absorbance was measured at 570 nm.

Data set [4] addresses T2, equine butyrylcholinesterase (eqBChE) (Equus caballus, UniProt P81908).
T2 construct: purchased
In words: Butyrylcholinesterase inhibition (adapted Ellman's method). The following applies: for SI (selectivity index): SI = IC50 (AChE)/IC50 (BChE); for IC50: eqBChE, read-out: BChE Inhib IC50. It counts as biochemical. The procedure:
as §1

Data set [5] deals with SH-SY5Y human neuroblastoma cell line. As to the kind of experiment: Protection against iron/ascorbate-induced toxicity (MTT). It counts as cell-based. The settings on record: 1 h pre-treatment at highest nontoxic concentration, then 24 h with Fe/Asc. The method, then:
as §2, §3
To evaluate the compounds’ protective effects against toxicity induced by Aβ1–42 or iron/ascorbate, the cells were pre-treated with each compound for one hour before adding Aβ1–42 or iron/ascorbate, followed by an additional 24-h incubation. Aβ1–42 (Bachem, Torrance, CA, USA) was prepared in sterile water to create a 443 µM stock solution and was added to the cells at a final concentration of 1 µM. Ferrous sulfate and L-ascorbic acid (Sigma Chemical Co., St. Louis, MO, USA) were introduced into the medium at final concentrations of 5 mM and 2.5 mM, respectively. […]

For a further data set, the target named is T3, Aβ1–42 (Homo sapiens, UniProt P05067).
T3 construct: the Aβ1–42 peptide (Shanghai Royobiotech Co., Ltd., Shanghai, China); purchased Shanghai Royobiotech Co., Ltd
T3 sequence (P05067 672-713): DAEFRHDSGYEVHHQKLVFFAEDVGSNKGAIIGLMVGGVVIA
In words: Inhibition of Aβ1–42 self-aggregation (ThT fluorescence). Type of data set: biochemical. The settings on record: read-out: % Aβ42 Self-Agg Inhib. The method, then: Firstly, the Aβ1–42 peptide (Shanghai Royobiotech Co., Ltd., Shanghai, China) was treated with 1,1,1,3,3,3-hexafluoropropan-2-ol (HFIP) and then dissolved in a CH3CN/Na2CO3 (300 μM)/NaOH (250 μM) (48.3:48.3:4.3, v/v/v) mixture in order to obtain a stable stock solution (500 μM).
Solutions of 1 mg of the assayed compounds in 2 mL of 1:1 (v/v) DMSO/MeOH (0.5 mg/mL) medium were prepared and then properly diluted with phosphate buffer (0.215 M, pH 8.0) to obtain a 120 μM final concentration. The Aβ1–42 self-aggregation inhibition assays were made based on a reported method, involving the fluorescence emission of thioflavin T (ThT). So, Aβ1–42 (40 μM) was incubated at 37 °C for 24 h in phosphate buffer and in the presence or absence of each ligand (40 μM for all compounds but 4AY4 and 4CY1, for which 20 μM was used). Then, […] 5 μM ThT in 50 mM glycine-NaOH (pH 8.5) buffer were added to each sample before transferring the samples to a 96-well microplate. Blank samples were also prepared without Aβ1–42. The ThT fluorescence was measured (446 and 485 nm excitation and emission wavelengths, respectively), and the percent of self-aggregation inhibition was determined by the equation:I% = 100 − (IFi/IF0 × 100) where IFi and IF0 are the fluorescence intensities, in the presence and the absence of the assayed compound, subtracted from the fluorescence intensities due to the respective blanks. The calculated values were obtained as the mean ± SEM of four different experiments conducted in duplicate. Statistical analysis was performed by a one-way analysis of variance (ANOVA) with a significance threshold set at p < 0.05.

The conditions of data set [6]: radical scavenging, parent acid; read-out: AA EC50; cited from earlier work.
[7] abbreviates: dose given for the Aβ1–42 experiments.
[8] abbreviates: dose given for the iron/ascorbate experiments.

T2 sequence (P81908 whole entry): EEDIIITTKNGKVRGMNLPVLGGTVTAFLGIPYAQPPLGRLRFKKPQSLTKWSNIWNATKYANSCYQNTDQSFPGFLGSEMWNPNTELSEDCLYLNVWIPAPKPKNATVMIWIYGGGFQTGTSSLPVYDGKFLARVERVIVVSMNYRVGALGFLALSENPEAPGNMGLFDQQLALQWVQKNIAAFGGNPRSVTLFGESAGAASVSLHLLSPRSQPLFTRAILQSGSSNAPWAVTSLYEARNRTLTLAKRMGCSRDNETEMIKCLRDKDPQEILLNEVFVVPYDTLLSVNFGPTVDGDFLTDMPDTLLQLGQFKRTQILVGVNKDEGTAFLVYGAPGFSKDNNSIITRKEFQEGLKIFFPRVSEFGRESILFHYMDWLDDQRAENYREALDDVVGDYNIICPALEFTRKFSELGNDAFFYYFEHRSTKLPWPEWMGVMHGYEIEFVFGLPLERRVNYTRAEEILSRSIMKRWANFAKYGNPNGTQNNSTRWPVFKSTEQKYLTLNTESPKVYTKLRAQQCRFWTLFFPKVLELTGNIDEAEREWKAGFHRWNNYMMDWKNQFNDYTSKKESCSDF

With `CCN(C)C(=O)Oc1cccc(NC(=O)/C=C/C=C/c2ccc3c(c2)OCO3)c1` [4AY4, 3-((2E,4E)-5-(Benzo[d][1,3]dioxol-5-yl)penta-2,4-dienamido)phenyl ethyl(methyl)carbamate], the results for the IC50 in data set [1] and in data set [4] were 14.51 ± 0.04 µM and 15.2 ± 0.4 µM, respectively. The “% AA (radical-scavenging activity)” value in data set [2] is recorded as less than 50%. Also, the values for the highest nontoxic concentration in data set [3] (setting [7]) and in data set [3] (setting [8]) were 1 µM and 2.5 µM, respectively. Besides, the “SI (selectivity index)” value in data set [4] was 0.9. Besides, the “rescue of cell viability after iron/ascorbate treatment” value in data set [5] was “capable of rescuing the cell viability; also recorded: significantly improved cell viability”. The inhibition at 20 µM at Aβ1–42 (24 h) was determined as 23 ± 3%.
In the case of `O=C(O)C=Cc1ccc(O)c(O)c1` [caffeic acid, 3,4-dihydroxycinnamic acid], in data set [6], the concentration for a half-maximal effect (EC50) is 21.7 ± 0.2 µM.
Turning to `CCN(C)C(=O)Oc1cccc(NC(=O)C2(C)CCc3c(C)c(O)c(C)c(C)c3O2)c1` (stereo not shown) [4AY2, 3-(6-Hydroxy-2,5,7,8-tetramethylchromane-2-carboxamido)phenyl ethyl(methyl)carbamate], the IC50 in data set [1] was 69 ± 7 µM; in data set [4], 36 ± 3 µM. The “% AA (radical-scavenging activity)” value in data set [2] is listed as 95 ± 3%. Further, the EC50 in data set [2] (read-out: AA EC50) amounted to 18.1 ± 0.4 µM. In addition, the figures for the highest nontoxic concentration in data set [3] (setting [7]) and in data set [3] (setting [8]) were 1 µM and 2.5 µM, respectively. For the same molecule, in data set [4], the “SI (selectivity index)” value is 1.9. Moreover, the “rescue of cell viability after iron/ascorbate treatment” value in data set [5] is recorded as “capable of rescuing the cell viability; also recorded: significantly improved cell viability”. Besides, the inhibition at 40 µM at Aβ1–42 was found to be 45 ± 4%.
Take `O=C(O)/C=C/C=C/c1ccc(O)c(O)c1` [(2E,4E)-5-(3,4-dihydroxyphenyl)penta-2,4-dienoic acid]: in data set [6], the EC50 is 18.2 ± 0.2 µM.
